As usually defined, the IC50 is the concentration that inhibits the measured activity by half.

The assay concerns the target T1, FTO (Homo sapiens, UniProt Q9C0B1).
T1 construct: FTOΔN31 (His-tag human FTO with N-terminal 31 residues truncated)
Description: crystal structure at […] Å; DSF shift; FP displacement (IC50 […]); IC50 from HPLC demethylation assay on ssDNA. In kind it is biochemical.

T1 sequence (Q9C0B1 32-505): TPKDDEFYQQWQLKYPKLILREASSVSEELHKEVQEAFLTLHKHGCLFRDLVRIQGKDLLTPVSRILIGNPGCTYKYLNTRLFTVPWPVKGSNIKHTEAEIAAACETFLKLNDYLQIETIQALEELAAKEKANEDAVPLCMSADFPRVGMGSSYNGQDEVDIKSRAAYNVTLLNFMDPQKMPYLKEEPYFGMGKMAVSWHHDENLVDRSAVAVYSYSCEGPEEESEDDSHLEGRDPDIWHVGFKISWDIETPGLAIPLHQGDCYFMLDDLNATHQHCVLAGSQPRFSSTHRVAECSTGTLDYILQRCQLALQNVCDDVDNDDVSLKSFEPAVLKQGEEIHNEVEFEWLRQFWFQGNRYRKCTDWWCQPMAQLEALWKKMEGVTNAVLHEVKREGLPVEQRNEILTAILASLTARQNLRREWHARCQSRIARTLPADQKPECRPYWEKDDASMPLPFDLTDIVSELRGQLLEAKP

Turning to `Cc1ccc(Cl)c(Nc2ccccc2C(=O)O)c1Cl` [MA, meclofenamic acid], the IC50 was determined as 7 µM.

Source of the values: publication PMC4288171, “Meclofenamic acid selectively inhibits FTO demethylation of m^6A over ALKBH5” (Nucleic Acids Research, 2014).
